In US20260274814A1, “THIENYL COMPOUNDS FOR THE TREATMENT OF A CENTRAL NERVOUS SYSTEM DISEASE OR DISORDER” (Coreterra Therapeutics, Inc., priority 2023, published 2026):
Where a name gives a salt, the structure may show the parent alone.

System: mice
Assay: Neuropharmacological Assay (SmartCube): automated behavioral signature of compound-treated mice compared with a database of reference drug classes
Format: in vivo
Method in brief: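 i.p. dosing 15 min pre-test (NMP/PEG/propylene glycol vehicle); 3 doses, 3.0 mg/kg reported. Output = class-match probability per behavioural effect. Potency runs 0.3, 1, 3, 10 mpk (range adjusted as needed); MED = dose with ≥45% total activity.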

[1] = SmartCube probability class, 3.0 mg/kg dose, i.p. 15 min before the behavioral test

## CNC1(C)Cc2ccsc2C1 (stereo not drawn) [Compound 328, N, 5-dimethyl-5,6-dihydro-4H-cyclopenta[b]thiophen-5-amine hydrochloride]
Mus musculus, ip, minimal effective dose: dose having 45% or more total activity in SmartCube, i.p., if only one dose was tested, that dose is shown, read-out: MED
  minimal effective dose: 3 mg/kg
[1]
  AD: ++ (≥24%)
  AG: ND (^ <4%)
  AN: ND (^ <4%)
  AP: ND (^ <4%)
  AX: + (≥4%)
  CE: ND (^ <4%)
  HL: + (≥4%)
  MS: ND (^ <4%)
  PS: ++ (≥24%)
  SH: ND (^ <4%)
  UK: + (≥4%)
